pIC50: −log10 of the molar value.
Tests used:
[1] = Mouse model of allergic asthma (ovalbumin); format: in vivo; details: data not shown
Source text: Mice are sensitized to ovalbumin (chicken protein) in the presence of an adjuvant (Alum) by the intraperitoneal route on day 0 and day 7. One week later, mice are challenged intranasally with ovalbumin on Days 14, 15 and 16 (more stringent model) or on Day 14 (less stringent model). This sensitization and challenge regimen leads to airway hyperresponsiveness and inflammation in the lungs, which are two dominant characteristics of human allergic asthma. In the mouse model, the in vivo airway responses are measured using a whole body plethysmograph which determines the PENH (enhanced Pause, Buxco Electronics). The PENH is a dimensionless value comprised of the peak inspiratory flow (PIF), peak expiratory flow (PEF), time of inspiration, time of expiration and relaxation time, and is considered a validated parameter of airway responsiveness. Responses to allergen challenge (OVA) are compared with animals challenged with saline only. Twenty-four hours after challenge, mice are exposed to increasing doses of methacholine (muscarinic receptor agonist) which results in smooth muscle contraction. […] In addition, a cellular infiltrate in the airway is observed in ovalbumin challenged mice when compared with the saline challenged mice. This cellular infiltrate is mainly characterized by eosinophils, but a smaller influx of neutrophils and mononuclear cells is also present.
The use of this model for the evaluation of small molecule inhibitors of mast cell degranulation has been validated is several ways. First, using mast cell deficient mice (W/W^v) it has been shown that the ovalbumin-induced responses are dependent upon the presence of mast cells.

[2] = system: cultured human mast cells (CHMC); assay: CHMC low cell density ionomycin activation: tryptase assay; format: cell-based
[3] = system: cultured human mast cells (CHMC); assay: CHMC high cell density IgE activation: TNFalpha; format: cell-based; details: anti-IgE activation; read-out: CHMC high density TNF-alpha
Protocol: (§1) Inhibition of degranulation was measured at both low and high cell density by quantifying the release of the granule specific factors tryptase, histamine and hexosaminidase. Inhibition of release and/or synthesis of lipid mediators was assessed by measuring the release of leukotriene LTC4 and inhibition of release and/or synthesis of cytokines was monitored by quantifying TNF-α, IL-6 and IL-13. Tryptase and hexosaminidase were quantified using fluorogenic substrates as described in their respective examples. […] The protocols of the various assays are provided below.
(§2) After sensitizing, cells are counted, pelleted (1000 rpm, 5-10 minutes), and resuspended at 1-2×10^6 cells/ml in MT buffer. Add 100 ul of cell suspension to each well and 100 ul of compound dilutions. The final vehicle concentration is 0.5% DMSO. Incubate at 37° C. (5% CO2) for 1 hour. After 1 hour of compound treatment, stimulate cells with 6× anti-IgE. Mix wells with the cells and allow plates to incubate at 37° C. (5% CO2) for one hour. After 1 hour incubation, pellet cells (10 minutes, 1000 RPM) and collect 200 ul per well of the supernatant, being careful not to disturb pellet. Place the supernatant plate on ice. During the 7-hour step (see next) perform tryptase assay on supernatant that had been diluted 1:500. Resuspend cell pellet in 240 ul of CM media containing 0.5% DMSO and corresponding concentration of compound. Incubate CHMC cells for 7 hours at 37° C. (5% CO2). After incubation, pellet cells (1000 RPM, 10 minutes) and collect 225 ul per well and place in −80° C. until ready to perform ELISAS. ELISAS are performed on appropriately diluted samples (determined empirically for each donor cell population so that the sample measurement falls within the standard curve) following the supplier's instructions.

[4] = system: cultured human mast cells (CHMC); assay: CHMC high cell density IgE activation: hexos (hexosaminidase) release; format: cell-based; details: anti-IgE activation
Protocol: as §1, §2

[5] = system: cultured human mast cells (CHMC); assay: CHMC high cell density IgE activation: LTC4; format: cell-based; details: anti-IgE activation
Protocol: as §1, §2

[6] = system: cultured human mast cells (CHMC); assay: CHMC high cell density IgE activation: tryptase; format: cell-based; details: anti-IgE activation
Protocol: as §2

[7] = system: cultured human mast cells (CHMC); assay: CHMC high cell density IgE activation: histamine; format: cell-based; details: anti-IgE activation
Protocol: as §1, §2

[8] = system: cultured human mast cells (CHMC); assay: CHMC low cell density IgE activation: tryptase assay; format: cell-based; details: anti-IgE
How it was run: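 Read-out: tryptase released into supernatant, measured by substrate turnover over 30 min at RT. Low-density CHMC (1000-1500 cells/well, per donor degranulation activity) in MT buffer, 1 hr at 37° C, then anti-IgE challenge 30 min at 37° C.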

[9] = system: cultured human mast cells (CHMC); assay: CHMC low cell density IgE activation: LTC4 assay; format: cell-based; details: anti-IgE
Protocol: Pellet CHMC cells (980 rpm, 10 min) and resuspend in pre-warmed MT. Add 65 ul of cells to each 96-well plate. Depending on the degranulation activity for each particular CHMC donor, load 1000-1500 cells/well. Mix four times followed by a 1 hr incubation at 37° C. […] Stimulate cells by adding 25 ul of 6× anti-IgE solution to the appropriate plates. Add 25 ul MT to un-stimulated control wells. Mix twice following addition of the anti-IgE. Incubate at 37° C. for 30 minutes. […] Spin plates at 1000 rpm for 10 min to pellet cells. Transfer 25 ul of supernatant to a 96-well black bottom plate and add 100 ul of freshly diluted tryptase substrate solution to each well. Incubate plates at room temperature for 30 min.
Leukotriene C4 (LTC4) is also quantified using an ELISA kit on appropriately diluted supernatant samples (determined empirically for each donor cell population so that the sample measurement falls within the standard curve) following the supplier's instructions.

[10] = system: cultured human mast cells (CHMC); assay: CHMC high cell density IgE activation: IL-13; format: cell-based; details: anti-IgE activation
Protocol: as §1, §2

[11] = system: bone marrow derived mast cells (BMMC); assay: BMMC high cell density IgE activation: histamine; format: cell-based, mouse; details: anti-IgE, second part of TABLE 1
Protocol: as §1
(§3) After sensitizing, cells are counted, pelleted (1000 rpm, 5-10 minutes), and resuspended at 1-3×10^6 cells/ml in MT buffer. Add 100 ul of cell suspension to each well and 100 ul of compound dilutions. The final vehicle concentration is 0.5% DMSO. Incubate at 37° C. (5% CO2) for 1 hour. After 1 hour of compound treatment, stimulate cells with 6× stimulus (60 ng/ml DNP-BSA). Mix wells with the cells and allow plates to incubate at 37° C. (5% CO2) for one hour. After 1 hour incubation, pellet cells (10 minutes, 1000 RPM) and collect 200 ul per well of the supernatant, being careful not to disturb pellet, and transfer to a clean tube or 96-well plate. Place the supernatant plate on ice. During the 4-5 hour step (see next) perform the hexosiminidase assay. Resuspend cell pellet in 240 ul WEI-conditioned media containing 0.5% DMSO and corresponding concentration of compound. Incubate BMMC cells for 4-5 hours at 37° C. (5% CO2). After incubation, pellet cells (1000 RPM, 10 minutes) and collect 225 ul per well and place in −80° C. until ready to perform ELISAS. ELISAS are performed on appropriately diluted samples (determined empirically for each donor cell population so that the sample measurement falls within the standard curve) following the supplier's instructions.

[12] = system: bone marrow derived mast cells (BMMC); assay: BMMC high cell density IgE activation: LTC4; format: cell-based, mouse; details: anti-IgE, second part of TABLE 1
Protocol: as §1, §3

[13] = system: bone marrow derived mast cells (BMMC); assay: BMMC high cell density IgE activation: IL-6; format: cell-based, mouse; details: anti-IgE, second part of TABLE 1
Protocol: as §1, §3

[14] = system: bone marrow derived mast cells (BMMC); assay: BMMC high cell density IgE activation: TNFalpha; format: cell-based, mouse; details: anti-IgE, second part of TABLE 1, read-out: BMMC anti-IgE TNF-alpha IC50
Protocol: as §1, §3

Jurkat cells = assay: Jurkat toxicity, Cell Titer Glo assay; format: cell-based; details: 18 hours incubation
Protocol: Seed 50 μl cells (1×10^6/ml) into each well containing 50 μl compound. […] Shake plates for 1 minute to mix cells and compound. Incubate plates at 37° C. […] Next day, harvest 50 μl cells from each well, add to 50 μl Cell Titer Glo reagent ([…]). Shake plates for 1 minute. Read on luminometer.

[15] = system: bone marrow derived mast cells (BMMC); assay: BMMC high cell density IgE activation: hexosaminidase; format: cell-based, mouse; details: anti-IgE, second part of TABLE 1, read-out: BMMC anti-IgE hexos. IC50
Protocol: as §3
Hexosaminidase assay: In a solid black 96-well assay plate, add 50 uL hexosaminidase substrate (4-methylumbelliferyl-N-acetyl-(3-D-glucosaminide; 2 mM) to each well. Add 50 uL of BMMC cell supernatant (see above) to the hexoseaminidase substrate, place at 37° C. for 30 minutes and read the plate at 5, 10, 15, and 30 minutes on a spectrophotometer.

[16] = Pharmacokinetics / oral bioavailability in rats; format: in vivo; details: rats
Protocol: Over 50 2,4-pyrimidinediamine compounds of the invention were tested for oral bioavailability. For the study, compounds were dissolved in various vehicles (e.g. PEG 400 solution and CMC suspension) for intravenous and oral dosing in the rats. Following administration of the drug, plasma samples were obtained and extracted. The plasma concentrations of the compounds were determined by high performance liquid chromatography/tandem mass spectrometry (LC/MS/MS) methods. Pharmacokinetic analyses were performed based on the plasma concentration data. The pharmacokinetic parameters of interest include Clearance (CL), Volume of distribution at steady-state (Vss), terminal half-life (t1/2), and oral bioavailability (% F).

[17] = system: FcγRI-mediated degranulation; assay: FcγRI receptor-mediated degranulation (activation with anti-human IgG Fab fragment); format: cell-based; details: cells not primed with IgE, activated with rabbit anti-human IgG Fab fragment

Compound	pIC50 [2]	pIC50 [4]	pIC50 [5]	pIC50 [6]	pIC50 [7]	pIC50 [8]	pIC50 [10]	oral bioavailabilities and half-lives (in words) [16]	also measured
O=C(O)c1cc(=O)c2c(OCC(O)COc3cccc4oc(C(=O)O)cc(=O)c34)cccc2o1 [Cromolyn]									ovalbumin-induced airway hyperresponsiveness and inflammation [1]: able to block
O=C(c1cc2cc(Nc3ncc(F)c(Nc4cccc(O)c4)n3)ccc2o1)N1CCOCC1 [R926488, 5-Fluoro-N4-(3-hydroxyphenyl)-N2-[2-(N-morpholino)carbonylbenzofuran-5-yl]-2,4-pyrimidinediamine]	< 5.00	6.28	6.70	6.21	6.10	6.48	5.99		pIC50 [3]: 5.61; pIC50 [9]: 6.12
O=C(COc1cccc(Nc2ncc(F)c(Nc3ccc4c(c3)OCCO4)n2)c1)NCCO [R926505, N4-(3,4-Ethylenedioxyphenyl)-5-fluoro-N2-[3-(2-hydroxyethylamino)carbonylmethyleneoxyphenyl]-2,4-pyrimidinediamine]	< 5.00					6.84			pIC50 [11]: > 6.66; pIC50 [12]: > 6.66; pIC50 [13]: > 6.66; pIC50 [14]: > 6.66; pIC50 (Jurkat cells): 5.38; pIC50 [15]: > 6.66
CNCCOc1cccc(Nc2ncc(F)c(Nc3ccc4c(c3)OCCO4)n2)c1 [R926510, N4-(3,4-Ethylenedioxyphenyl)-5-fluoro-N2-[3-[2-(N-methylamino)ethyleneoxy]phenyl]-2,4-pyrimidinediamine]	< 5.00	6.04	6.38	5.95	5.78	6.36	6.16		pIC50 (Jurkat cells): 5.56
OCCCn1ncc2cc(Nc3ncc(F)c(Nc4ccc(Cl)c(Cl)c4)n3)ccc21 [R935391]								good	

The next lines start with results.

pIC50 [2]	pIC50 [4]	pIC50 [5]	pIC50 [6]	pIC50 [7]	pIC50 [8]	pIC50 [10]	oral bioavailabilities and half-lives (in words) [16]	Compound	also measured
< 5.00	> 5.96	> 5.96	> 5.96	5.84	6.12	5.89		Oc1cccc(Nc2nc(Nc3ccc(OCCN4CCOCC4)cc3)ncc2F)c1 [R926699, 5-Fluoro-N4-(3-hydroxyphenyl)-N2-[4-[2-(N-morpholino)ethyleneoxy]phenyl]-2,4-pyrimidinediamine]	pIC50 [3]: > 5.96
< 5.00								COc1cc(Nc2ncc(F)c(Nc3cccc(O)c3)n2)cc(OC)c1 [R926780, N2-(3.5-Dimethoxyphenyl)-5-fluoro-N4-(3-hydroxyphenyl)-2,4-pyrimidinediamine]	pIC50 [11]: > 6.66; pIC50 [12]: 6.34; pIC50 [13]: > 6.66; pIC50 [14]: > 6.66; pIC50 (Jurkat cells): < 5.30; pIC50 [15]: > 6.66
							good	COc1cc(Nc2ncc(F)c(Nc3ccc4c(c3)NC(=O)C(C)(C)O4)n2)cc(OC)c1 [R927050]	FcγRI-mediated degranulation (in words) [17]: inhibit FcγRI-mediated degranulation
< 5.00					6.87		good	Cn1ncc2cc(Nc3ncc(F)c(Nc4ccc5c(c4)OCCO5)n3)ccc21 [R935193, N4-(3,4-Ethylenedioxyphenyl)-5-fluoro-N2-(1-methyl-indazoline-5-yl)-2,4-pyrimidinediamine]	pIC50 [11]: 7.32; pIC50 [13]: 7.43; pIC50 [15]: 7.10
< 5.00					7.22		good	Fc1cnc(Nc2ccc3cn[nH]c3c2)nc1Nc1ccc(Cl)c(Cl)c1 [R935372, N4-(3,4-Dichlorophenyl)-5-fluoro-N2-(indazoline-6-yl)-2,4-pyrimidinediamine]	FcγRI-mediated degranulation (in words) [17]: inhibit FcγRI-mediated degranulation
5.40							good	CC1(C)Oc2ccc(Nc3ncc(F)c(Nc4ccc5c(c4)NC(=O)C(C)(C)O5)n3)cc2NC1=O [R940350, N2,N4-[(2,2-Dimethyl-4H-benzo[1,4]oxazin-3-one)-6-yl]-5-fluoro-2,4-pyrimidinediamine]	FcγRI-mediated degranulation (in words) [17]: inhibit FcγRI-mediated degranulation
< 5.00	6.45	7.03	6.34	6.36	6.43	6.54		N#CCOc1ccc(Nc2ncc(F)c(Nc3ccc(OCC#N)cc3)n2)cc1 [R945032, N2,N4-Bis[4-(cyanomethyleneoxy)phenyl]-5-fluoro-2,4-pyrimidinediamine]	pIC50 [3]: 5.97
